*1 amine or outer side, *2 acyl side, *3 side chain or, on linkers, in order; H or OH if unused. Where a SMILES comes first, the peptide text is derived from it. [ ]: non-standard residue; d: D form. Phe(4-(trans-4-COOH-cHex)) = N[C@@H](Cc1ccc([C@H]2CC[C@H](C(=O)O)CC2)cc1)C(=O)O; Phe(4-(4-Ac-piperazinyl)) = CC(=O)N1CCN(c2ccc(C[C@H](N)C(=O)O)cc2)CC1; Trp(4-Cl)(βS-Me) = C[C@@H](c1c[nH]c2cccc(Cl)c12)[C@H](N)C(=O)O; Trp(βS-Me,4-F) = C[C@@H](c1c[nH]c2cccc(F)c12)[C@H](N)C(=O)O; Bip(4'-COOH) = N[C@@H](Cc1ccc(-c2ccc(C(=O)O)cc2)cc1)C(=O)O; 1Nal(3S-Me) = C[C@@H](c1cccc2ccccc12)[C@H](N)C(=O)O; Ala(indolin-1-yl) = N[C@@H](CN1CCc2ccccc21)C(=O)O; hPhe(4-CF3) = N[C@@H](CCc1ccc(C(F)(F)F)cc1)C(=O)O; X13 = O=C([C@H](CCc1ccccc1C(F)(F)F)N[*:1])[*:2]; Ala(pyrimidin-5-yl) = N[C@@H](Cc1cncnc1)C(=O)O; Phe(4-COOH) = N[C@@H](Cc1ccc(C(=O)O)cc1)C(=O)O; Trp(6-F) = N[C@@H](Cc1c[nH]c2cc(F)ccc12)C(=O)O; h3Pal(5-CN) = N#Cc1cncc(CC[C@H](N)C(=O)O)c1; Pro(4R-NH2) = N[C@H]1CN[C@H](C(=O)O)C1; AEF = NCCOc1ccc(C[C@H](N)C(=O)O)cc1; hTyr = N[C@@H](CCc1ccc(O)cc1)C(=O)O; hCha = N[C@@H](CCC1CCCCC1)C(=O)O; 4Pal = N[C@@H](Cc1ccncc1)C(=O)O; hLys = NCCCCC[C@H](N)C(=O)O; dDab = NCC[C@@H](N)C(=O)O; dNMeA = CN[C@H](C)C(=O)O; Dab = NCC[C@H](N)C(=O)O
These molecules were tested against T1, Recombinant human IL-1β (Homo sapiens, UniProt P01584) (assay: IL-6 assay in MRC5 cells: inhibition of IL-1β induced IL-6 secretion (AlphaLISA)). Settings: inhibition of IL-1β induced IL-6 secretion in MRC5 cells; IL-1β pre-incubated 1 hour with compound; read-out: MRC5 IC50.
T1 construct: purchased BioLegend 579404
Assay type: cell-based
Method in brief: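 IL-1β at 2×EC80 in seeding medium (EMEM, 0.025% BSA) preincubated 1 h at ambient temperature with compound, then 3000 MRC5 cells/well added and incubated overnight at 37 °C, 5% CO2. IL-6 in conditioned medium quantified by AlphaLISA; IC50 from 4-parameter logistic fit.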

T1 sequence (P01584 117-269): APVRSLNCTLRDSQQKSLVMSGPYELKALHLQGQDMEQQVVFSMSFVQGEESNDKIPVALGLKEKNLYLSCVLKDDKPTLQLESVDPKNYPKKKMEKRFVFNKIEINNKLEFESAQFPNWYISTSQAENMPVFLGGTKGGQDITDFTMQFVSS

In order of rising IC50:
1. CC(=O)NCCOc1ccc(C[C@@H]2NC(=O)[C@H](CCc3ccccc3C(F)(F)F)NC(=O)[C@@H](C)NC(=O)[C@H](CO)NC(=O)[C@H](Cc3ccncc3)NC(=O)[C@H](Cc3ccc(-c4ccc(C(=O)O)cc4)cc3)NC(=O)CNC(=O)[C@@H](C)N(C)C(=O)[C@H](CC(=O)O)NC(=O)[C@H]([C@@H](C)c3cccc4ccccc34)NC(=O)[C@@H]3C[C@@H](N)CN3C(=O)CNC(=O)[C@H](Cc3ccc(C(=O)O)cc3)NC(=O)[C@H](Cc3c[nH]c4ccccc34)NC2=O)cc1 [Example 103] (cyclo([AEF](Ac)W[Phe(4-COOH)]G[Pro(4R-NH2)][1Nal(3S-Me)]D[dNMeA]G[Bip(4'-COOH)][4Pal]S[dA][X13]))  0.066 nM
2. CC(C)C[C@@H]1NC(=O)[C@H](CCCCN)NC(=O)[C@H](Cc2ccc(-c3ccc(C(=O)O)cc3)cc2)NC(=O)CNC(=O)[C@@H](C)N(C)C(=O)[C@H](CC(=O)O)NC(=O)[C@H]([C@@H](C)c2cccc3ccccc23)NC(=O)[C@@H]2C[C@@H](N)CN2C(=O)CNC(=O)[C@H](Cc2ccc(C(=O)O)cc2)NC(=O)[C@H](Cc2c[nH]c3ccccc23)NC(=O)[C@H](Cc2ccc(-c3ccc(C(=O)O)cc3)cc2)NC(=O)[C@H](CCc2ccc(O)cc2)NC(=O)[C@@H](CO)NC1=O [Example 26] (cyclo([Bip(4'-COOH)]W[Phe(4-COOH)]G[Pro(4R-NH2)][1Nal(3S-Me)]D[dNMeA]G[Bip(4'-COOH)]KL[dS][hTyr]))  0.0688 nM
3. CC(=O)NCCOc1ccc(C[C@@H]2NC(=O)[C@H](CCc3cncc(C#N)c3)NC(=O)[C@@H](CCN)NC(=O)CNC(=O)[C@H](Cc3cncnc3)NC(=O)[C@H](Cc3ccc(-c4ccc(C(=O)O)cc4)cc3)NC(=O)CNC(=O)[C@@H](C)N(C)C(=O)[C@H](CC(=O)O)NC(=O)[C@H]([C@@H](C)c3cccc4ccccc34)NC(=O)[C@@H]3C[C@@H](N)CN3C(=O)CNC(=O)[C@H](Cc3ccc(C(=O)O)cc3)NC(=O)[C@H](Cc3c[nH]c4ccccc34)NC2=O)cc1 [Example 113] (cyclo([AEF](Ac)W[Phe(4-COOH)]G[Pro(4R-NH2)][1Nal(3S-Me)]D[dNMeA]G[Bip(4'-COOH)][Ala(pyrimidin-5-yl)]G[dDab][h3Pal(5-CN)]))  0.0918 nM
4. CC(=O)NCCOc1ccc(C[C@@H]2NC(=O)[C@H](CCc3ccc(C(F)(F)F)cc3)NC(=O)[C@@H](C)NC(=O)[C@H](CO)NC(=O)[C@H](CCCCN)NC(=O)[C@H](Cc3ccc(-c4ccc(C(=O)O)cc4)cc3)NC(=O)CNC(=O)[C@@H](C)N(C)C(=O)[C@H](CC(=O)O)NC(=O)[C@H]([C@@H](C)c3cccc4ccccc34)NC(=O)[C@@H]3C[C@@H](N)CN3C(=O)CNC(=O)[C@H](Cc3ccc(C(=O)O)cc3)NC(=O)[C@H](Cc3c[nH]c4ccccc34)NC2=O)cc1 [Example 111] (cyclo([AEF](Ac)W[Phe(4-COOH)]G[Pro(4R-NH2)][1Nal(3S-Me)]D[dNMeA]G[Bip(4'-COOH)]KS[dA][hPhe(4-CF3)]))  0.133 nM
5. CC(C)C[C@@H]1NC(=O)[C@H](CCCCCN)NC(=O)[C@H](Cc2ccc(-c3ccc(C(=O)O)cc3)cc2)NC(=O)CNC(=O)[C@@H](C)N(C)C(=O)[C@H](CC(=O)O)NC(=O)[C@H]([C@@H](C)c2c[nH]c3cccc(F)c23)NC(=O)[C@@H]2C[C@@H](N)CN2C(=O)CNC(=O)[C@H](Cc2ccc(C(=O)O)cc2)NC(=O)[C@H](Cc2c[nH]c3ccccc23)NC(=O)[C@H](Cc2ccc(-c3ccc(C(=O)O)cc3)cc2)NC(=O)[C@H](CCc2ccc(O)cc2)NC(=O)[C@@H](C)NC1=O [Example 62] (cyclo([Bip(4'-COOH)]W[Phe(4-COOH)]G[Pro(4R-NH2)][Trp(βS-Me,4-F)]D[dNMeA]G[Bip(4'-COOH)][hLys]L[dA][hTyr]))  0.283 nM

Same assay, conditions: inhibition of IL-1β induced IL-6 secretion in MRC5 cells; read-out: MRC5 IC50

In order of falling IC50:
1. CC(=O)NCCOc1ccc(C[C@@H]2NC(=O)[C@H](CCc3ccc(O)cc3)NC(=O)[C@@H](C)NC(=O)[C@H](CO)NC(=O)[C@H](CCCCN)NC(=O)[C@H](Cc3ccc(-c4ccc(C(=O)O)cc4)cc3)NC(=O)CNC(=O)[C@@H](C)N(C)C(=O)[C@H](CC(=O)O)NC(=O)[C@H]([C@@H](C)c3c[nH]c4cccc(Cl)c34)NC(=O)[C@@H]3C[C@@H](N)CN3C(=O)CNC(=O)[C@H](Cc3ccc(C(=O)O)cc3)NC(=O)[C@H](Cc3c[nH]c4ccccc34)NC2=O)cc1 [Example 138] (cyclo([AEF](Ac)W[Phe(4-COOH)]G[Pro(4R-NH2)][Trp(4-Cl)(βS-Me)]D[dNMeA]G[Bip(4'-COOH)]KS[dA][hTyr]))  0.214 nM
2. CC(=O)NCCOc1ccc(C[C@@H]2NC(=O)[C@H](CCc3ccc(O)cc3)NC(=O)[C@@H](CCN)NC(=O)CNC(=O)[C@H](CN3CCc4ccccc43)NC(=O)[C@H](Cc3ccc(-c4ccc(C(=O)O)cc4)cc3)NC(=O)CNC(=O)[C@@H](C)N(C)C(=O)[C@H](CC(=O)O)NC(=O)[C@H]([C@@H](C)c3cccc4ccccc34)NC(=O)[C@@H]3C[C@@H](N)CN3C(=O)CNC(=O)[C@H](Cc3ccc(C(=O)O)cc3)NC(=O)[C@H](Cc3c[nH]c4cc(F)ccc34)NC2=O)cc1 [Example 211] (cyclo([AEF](Ac)[Trp(6-F)][Phe(4-COOH)]G[Pro(4R-NH2)][1Nal(3S-Me)]D[dNMeA]G[Bip(4'-COOH)][Ala(indolin-1-yl)]G[dDab][hTyr]))  0.027 nM
3. CC(=O)NCCOc1ccc(C[C@@H]2NC(=O)[C@H](CCc3cncc(C#N)c3)NC(=O)[C@@H](CCN)NC(=O)CNC(=O)[C@H](Cc3c[nH]c4ccccc34)NC(=O)[C@H](Cc3ccc(-c4ccc(C(=O)O)cc4)cc3)NC(=O)CNC(=O)[C@@H](C)N(C)C(=O)[C@H](CC(=O)O)NC(=O)[C@H]([C@@H](C)c3cccc4ccccc34)NC(=O)[C@@H]3C[C@@H](N)CN3C(=O)CNC(=O)[C@H](Cc3ccc(C(=O)O)cc3)NC(=O)[C@H](Cc3c[nH]c4ccccc34)NC2=O)cc1 [Example 122] (cyclo([AEF](Ac)W[Phe(4-COOH)]G[Pro(4R-NH2)][1Nal(3S-Me)]D[dNMeA]G[Bip(4'-COOH)]WG[dDab][h3Pal(5-CN)]))  0.0248 nM
4. C[C@@H]1C(=O)NCC(=O)N[C@@H](Cc2ccc(-c3ccc(C(=O)O)cc3)cc2)C(=O)N[C@@H](Cc2ccncc2)C(=O)NCC(=O)N[C@H](CCN)C(=O)N[C@@H](CCC2CCCCC2)C(=O)N[C@@H](Cc2ccc([C@H]3CC[C@H](C(=O)O)CC3)cc2)C(=O)N[C@@H](Cc2c[nH]c3cc(F)ccc23)C(=O)N[C@@H](Cc2ccc(C(=O)O)cc2)C(=O)NCC(=O)N2C[C@H](N)C[C@H]2C(=O)N[C@@H]([C@@H](C)c2cccc3ccccc23)C(=O)N[C@@H](CC(=O)O)C(=O)N1C [Example 192] (cyclo([Phe(4-(trans-4-COOH-cHex))][Trp(6-F)][Phe(4-COOH)]G[Pro(4R-NH2)][1Nal(3S-Me)]D[dNMeA]G[Bip(4'-COOH)][4Pal]G[dDab][hCha]))  0.015 nM
5. CC(=O)N1CCN(c2ccc(C[C@@H]3NC(=O)[C@H](CCC4CCCCC4)NC(=O)[C@@H](C)NC(=O)[C@H](CC(C)C)NC(=O)[C@H](CCN)NC(=O)[C@H](Cc4ccc(-c5ccc(C(=O)O)cc5)cc4)NC(=O)CNC(=O)[C@@H](C)N(C)C(=O)[C@H](CC(=O)O)NC(=O)[C@H]([C@@H](C)c4cccc5ccccc45)NC(=O)[C@@H]4C[C@@H](N)CN4C(=O)CNC(=O)[C@H](Cc4ccc(C(=O)O)cc4)NC(=O)[C@H](Cc4c[nH]c5ccccc45)NC3=O)cc2)CC1 [Example 203] (cyclo([Phe(4-(4-Ac-piperazinyl))]W[Phe(4-COOH)]G[Pro(4R-NH2)][1Nal(3S-Me)]D[dNMeA]G[Bip(4'-COOH)][Dab]L[dA][hCha]))  0.012 nM
